Literature values in US20110159084A1, “RALOXIFENE PHARMACEUTICAL FORMULATIONS” (DR. REDDY'S LABORATORIES LTD., priority 2008, published 2011).

What was measured:
[1] = in vivo
[2] = 37° C.

solubility in simulated gastric fluid (SGF) USP ([2]; SGF USP) [µg/mL] | solubility in simulated intestinal fluid (SIF) USP ([2]; SIF USP) [µg/mL] | Compound | absolute bioavailability [1] | intra-subject pharmacokinetic variability [1]
3 | 2 | Cl.O=C(c1ccc(OCCN2CCCCC2)cc1)c1c(-c2ccc(O)cc2)sc2cc(O)ccc12 [Raloxifene hydrochloride, methanone, [6-hydroxy-2-(4-hydroxyphenyl)benzo[b]thiene-3-yl]-[4-[2-(1-piperidinyl)ethoxy]phenyl]-, hydrochloride] | about 2% | 
 |  | Raloxifene | 2% | approximately 30 % coefficient of variation
